Assay results taken from PubChem BioAssay AID248 (DTP/NCI, 2004).
Values joined by “and” are separate entries in the source; they are usually repeats but may differ in a detail not shown here. Equal values may be shown once. Inconclusive results and toxic doses are left out. No stated cut-off is given here; in the data, active means T/C of 150% or more; inactive means T/C below 125%.

Tested on: L1210 leukemia ip in BDF1 mice, survival T/C
Experiment: NCI In Vivo Anticancer Drug Screen. Data for tumor model L1210 Leukemia (intraperitoneal) in B6D2F1 (BDF1) mice
Details: endpoint: mean survival time, higher = longer survival
Summary of the method: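 In this screen, tumor-bearing mice given compound are compared to those given vehicle, and their survival values are reported as a treated-to-control quotient.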

[1] = dose: 100.0 mg/kg/injection, schedule: Q04DX002 (ip), vehicle: other
[2] = dose: 200.0 mg/kg/injection, schedule: Q04DX002 (ip), vehicle: other
[3] = dose: 100.0 mg/kg/injection, schedule: Q01DX009 (ip), vehicle: Klucel (hydroxypropylcellulose) (HPC)
[4] = dose: 200.0 mg/kg/injection, schedule: Q01DX009 (ip), vehicle: Klucel (hydroxypropylcellulose) (HPC)
[5] = dose: 100.0 mg/kg/injection, schedule: Q01DX001 (ip), vehicle: other
[6] = dose: 200.0 mg/kg/injection, schedule: Q01DX001 (ip), vehicle: other
[7] = dose: 400.0 mg/kg/injection, schedule: Q01DX001 (ip), vehicle: other
[8] = dose: 25.0 mg/kg/injection, schedule: Q04DX002 (ip), vehicle: saline
[9] = dose: 50.0 mg/kg/injection, schedule: Q04DX002 (ip), vehicle: saline
[10] = dose: 100.0 mg/kg/injection, schedule: Q04DX002 (ip), vehicle: saline
[11] = dose: 200.0 mg/kg/injection, schedule: Q04DX002 (ip), vehicle: saline
[12] = dose: 400.0 mg/kg/injection, schedule: Q04DX002 (ip), vehicle: saline
[13] = dose: 100.0 mg/kg/injection, schedule: Q01DX009 (ip), vehicle: saline
[14] = dose: 100.0 mg/kg/injection, schedule: Q04DX003 (ip), vehicle: saline
[15] = dose: 200.0 mg/kg/injection, schedule: Q04DX003 (ip), vehicle: saline
[16] = dose: 60.0 mg/kg/injection, schedule: Q01DX001 (ip), vehicle: carboxymethylcellulose (CMC)
[17] = dose: 100.0 mg/kg/injection, schedule: Q04DX002 (ip), vehicle: Klucel (hydroxypropylcellulose) (HPC)

Measured: T/C

O=c1[nH]c(=O)n(C2OC(CO)C(O)C2O)cc1CCC(F)F (stereo not drawn)
inactive: [1] 105 % of control | [2] 102 % of control

CNc1nc(N(C)C)nc(C)c1[N+](=O)[O-]
inactive: dose: 50.0 mg/kg/injection, schedule: Q01DX009 (ip), vehicle: Klucel (hydroxypropylcellulose) (HPC) 91 % of control | [3] 98 % of control | [4] 105 % of control

CC(Oc1ccccc1)C(=O)NC(=S)Nc1cc(C(F)(F)F)ccc1Cl (stereo not drawn)
inactive: dose: 50.0 mg/kg/injection, schedule: Q01DX009 (ip), vehicle: other 101 % of control and 103 % of control | [5] 105 % of control | dose: 100.0 mg/kg/injection, schedule: Q01DX009 (ip), vehicle: other 100 % of control and 92 % of control | [1] 97 % of control and 110 % of control | [6] 100 % of control | dose: 200.0 mg/kg/injection, schedule: Q01DX009 (ip), vehicle: other 95 % of control and 92 % of control | [2] 98 % of control and 106 % of control | [7] 94 % of control | dose: 400.0 mg/kg/injection, schedule: Q01DX009 (ip), vehicle: other 87 % of control | dose: 400.0 mg/kg/injection, schedule: Q04DX002 (ip), vehicle: other 97 % of control and 116 % of control

COC1=[C]([Hg][Br])C(OC)OC1OC (stereo not drawn)
inactive: dose: 5.0 mg/kg/injection, schedule: Q01DX009 (ip), vehicle: saline with Tween-80 89 % of control | dose: 10.0 mg/kg/injection, schedule: Q01DX009 (ip), vehicle: saline with Tween-80 95 % of control

Cc1ccc(NC2=C(Cl)C(=O)c3ccccc3C2=O)cc1
inactive: dose: 50.0 mg/kg/injection, schedule: Q01DX001 (ip), vehicle: carboxymethylcellulose (CMC) 101 % of control | dose: 100.0 mg/kg/injection, schedule: Q01DX001 (ip), vehicle: carboxymethylcellulose (CMC) 95 % of control | dose: 200.0 mg/kg/injection, schedule: Q01DX001 (ip), vehicle: carboxymethylcellulose (CMC) 93 % of control | dose: 400.0 mg/kg/injection, schedule: Q01DX001 (ip), vehicle: carboxymethylcellulose (CMC) 89 % of control

CCN(CC)C(C)CNc1cc(C)nc(/N=C(\N)Nc2ccc(Cl)c(Cl)c2)n1 (stereo not drawn)
inactive: dose: 2.35 mg/kg/injection, schedule: Q01DX009 (ip), vehicle: Klucel (hydroxypropylcellulose) (HPC) 110 % of control | dose: 4.69 mg/kg/injection, schedule: Q01DX009 (ip), vehicle: Klucel (hydroxypropylcellulose) (HPC) 100 % of control | dose: 9.38 mg/kg/injection, schedule: Q01DX009 (ip), vehicle: Klucel (hydroxypropylcellulose) (HPC) 98 % of control and 100 % of control | dose: 37.5 mg/kg/injection, schedule: Q01DX009 (ip), vehicle: Klucel (hydroxypropylcellulose) (HPC) 100 % of control | dose: 75.0 mg/kg/injection, schedule: Q01DX001 (ip), vehicle: other 97 % of control

Cc1ccc(Sc2cccc3c(C)c4cccc5c4c(c23)C[S+]5c2ccc(C)cc2)cc1 (stereo not drawn)
inactive: dose: 1.56 mg/kg/injection, schedule: Q01DX009 (ip), vehicle: saline with Tween-80 103 % of control | dose: 3.13 mg/kg/injection, schedule: Q01DX009 (ip), vehicle: saline with Tween-80 101 % of control | dose: 6.25 mg/kg/injection, schedule: Q01DX009 (ip), vehicle: saline with Tween-80 103 % of control

C#CCSC(C)C
inactive: [8] 104 % of control | [9] 104 % of control | [10] 96 % of control | [11] 104 % of control and 107 % of control | [12] 93 % of control

O=[N+]([O-])c1cc(S(=O)(=O)c2ccc(O)c([N+](=O)[O-])c2)ccc1O
inactive: [8] 98 % of control | [9] 98 % of control | [10] 98 % of control and 104 % of control

CCCCCCCCCCCCNC1=C(Cl)C(=O)c2ccccc2C1=O
inactive: dose: 1.0 mg/kg/injection, schedule: Q01DX Z (ip), vehicle: methylcellulose (MC) 94 % of control | dose: 2.2 mg/kg/injection, schedule: Q01DX Z (ip), vehicle: methylcellulose (MC) 89 % of control

CCCCCCCCCCCCCCCCCCc1cc(C)ccc1C
inactive: [5] 107 % of control | [6] 90 % of control | [7] 104 % of control

CCOC(=O)CC(=O)CCc1ccccc1
inactive: dose: 100.0 mg/kg/injection, schedule: Q01DX001 (ip), vehicle: saline 104 % of control | [13] 94 % of control and 100 % of control | [10] 103 % of control and 105 % of control | [14] 113 % of control | dose: 200.0 mg/kg/injection, schedule: Q01DX001 (ip), vehicle: saline 104 % of control | dose: 200.0 mg/kg/injection, schedule: Q01DX009 (ip), vehicle: saline 94 % of control and 102 % of control | [11] 100 % of control and 108 % of control | [15] 106 % of control | dose: 400.0 mg/kg/injection, schedule: Q01DX001 (ip), vehicle: saline 103 % of control | dose: 400.0 mg/kg/injection, schedule: Q01DX009 (ip), vehicle: saline 92 % of control and 97 % of control | [12] 96 % of control and 102 % of control | dose: 400.0 mg/kg/injection, schedule: Q04DX003 (ip), vehicle: saline 105 % of control

S=P(c1ccccc1)(N1CCCCC1)N1CCCCC1
inactive: [14] 97 % of control | [15] 93 % of control

CC(=O)Nc1c(Cl)cc(-c2ccc(F)cc2)cc1Cl
inactive: dose: 15.0 mg/kg/injection, schedule: Q01DX001 (ip), vehicle: carboxymethylcellulose (CMC) 96 % of control | dose: 30.0 mg/kg/injection, schedule: Q01DX001 (ip), vehicle: carboxymethylcellulose (CMC) 94 % of control | [16] 98 % of control

COC(=O)c1cc(NC(=O)Nc2cc(C(F)(F)F)ccc2Cl)cc(C(=O)OC)c1
inactive: [17] 112 % of control | dose: 200.0 mg/kg/injection, schedule: Q04DX002 (ip), vehicle: Klucel (hydroxypropylcellulose) (HPC) 105 % of control | dose: 400.0 mg/kg/injection, schedule: Q04DX002 (ip), vehicle: Klucel (hydroxypropylcellulose) (HPC) 105 % of control

O=NN(CCO)C(=O)Nc1ccc(NC(=O)N(CCO)N=O)cc1
inactive: dose: 9.0 mg/kg/injection, schedule: Q01DX001 (ip), vehicle: carboxymethylcellulose (CMC) 106 % of control | dose: 18.0 mg/kg/injection, schedule: Q01DX001 (ip), vehicle: carboxymethylcellulose (CMC) 108 % of control | dose: 26.0 mg/kg/injection, schedule: Q01DX001 (ip), vehicle: carboxymethylcellulose (CMC) 114 % of control | dose: 40.0 mg/kg/injection, schedule: Q01DX001 (ip), vehicle: carboxymethylcellulose (CMC) 111 % of control | [16] 111 % of control

CCOC(=O)C(C)(C)CN(CC(C)(C)C(=O)OCC)c1ccccc1
inactive: dose: 100.0 mg/kg/injection, schedule: Q04DX003 (ip), vehicle: saline with Tween-80 106 % of control | dose: 200.0 mg/kg/injection, schedule: Q04DX003 (ip), vehicle: saline with Tween-80 106 % of control | dose: 400.0 mg/kg/injection, schedule: Q04DX003 (ip), vehicle: saline with Tween-80 104 % of control

CCOC(=O)c1ccc(NC(=O)Nc2cccc(F)c2)cc1
inactive: [3] 101 % of control | [4] 100 % of control

CCOC(=N)Cc1ccccc1
inactive: dose: 12.5 mg/kg/injection, schedule: Q04DX002 (ip), vehicle: Klucel (hydroxypropylcellulose) (HPC) 100 % of control | dose: 25.0 mg/kg/injection, schedule: Q04DX002 (ip), vehicle: Klucel (hydroxypropylcellulose) (HPC) 103 % of control | dose: 50.0 mg/kg/injection, schedule: Q04DX002 (ip), vehicle: Klucel (hydroxypropylcellulose) (HPC) 106 % of control | [17] 110 % of control

CC(O)C(C)Cl (stereo not drawn)
inactive: dose: 50.0 mg/kg/injection, schedule: Q01DX009 (ip), vehicle: saline 100 % of control | [13] 103 % of control
